From patent US11926812B2, “Pressure-driven, adjustable throughput fluidics for tissue and cell perifusions” (EnTox Sciences, Inc., priority 2017, dated 2024)

Test system: liver slices
Assay: Effect of acetaminophen on liver oxygen consumption rate (OCR) in microperifusion prototype
Type: cell-based, rat
Conditions: two 1 mg liver slices per channel, after about three hours baseline, triplicate channels

In the case of `CC(=O)Nc1ccc(O)cc1` [acetaminophen], the OCR lowered (6 mM acetaminophen) is reported as 40% and the OCR lowered (15 mM acetaminophen) is reported as 60%.
